Experimental data as given in US9139542B2, “Crystalline form of a substituted thiazolylacetic acid triethylamine salt” (THERAVANCE BIOPHARMA ANTIBIOTICS IP, LLC, priority 2013, dated 2015).

Legend:
[1] = Thermogravimetric analysis (TGA); type: physicochemical
Description: Thermogravimetric analysis (TGA) was performed using a TA Instruments Model Q-500 module equipped with high resolution capability. Data were collected and analyzed using TA Instruments Thermal Solutions software. A sample of crystalline (2Z)-2-(2-amino-5-chlorothiazol-4-yl)-2-(3-N-tert -butoxycarbonylaminopropoxyimino)acetic acid triethylamine salt (about 10 mg) was placed onto a platinum pan and scanned with a high resolution-heating rate from ambient temperature to 300° C. The balance and furnace chambers were purged with nitrogen flows during use.

[2] = Dynamic moisture sorption (DMS) assessment; type: physicochemical
Description: A dynamic moisture sorption (DMS) assessment (also known as a moisture sorption-desorption profile) was performed using a VTI atmospheric microbalance, SGA-100 system (VTI Corp., Hialeah, Fla. 33016). A sample of crystalline (2Z)-2-(2-amino-5-chlorothiazol-4-yl)-2-(3-N-tert-butoxycarbonylaminopropoxyimino)acetic acid triethylamine salt (about 10 mg) was used and the humidity was set at the ambient value at the start of the analysis. A typical DMS analysis consisted of three scans: ambient to 5% relative humidity (RH), 5% RH to 90% RH, 90% RH to 5% RH at a scan rate of 5% RH/step. The mass was measured every two minutes and the RH was changed to the next value (+/−5% RH) when the mass of the sample was stable to within 0.01% for 5 consecutive points.

Structure (SMILES): CC(C)(C)OC(=O)NCCCO/N=C(\C(=O)O)c1nc(N)sc1Cl.CCN(CC)CC [crystalline form, (2Z)-2-(2-amino-5-chlorothiazol-4-yl)-2-(3-N-tert-butoxycarbonylaminopropoxyimino)acetic acid triethylamine salt]
- weight loss (TGA) ([1]; above 120° C., likely post-melting evaporation of triethylamine and decomposition): about 50%
- weight loss (TGA) ([1]; temperature range of from 20° C. to 120° C.): less than 0.25%
- hygroscopicity (reversible moisture sorption/desorption profile) ([2]; 5% RH to 90% RH to 5% RH): acceptable hygroscopicity
- weight gain (moisture sorption) ([2]; humidity range of 5% RH to 60% RH): insignificant weight gain
- weight gain (moisture sorption) ([2]; humidity range of 60% RH to 90% RH): about 5.56%
- moisture loss on initial drying (DMS) ([2]; initial drying, ambient to 5% RH): 0.56 % by weight
